Test results as given in PubChem BioAssay AID1259407 (Chemical Carcinogenesis Research Information System (CCRIS), 2018).
Calls of active or inactive are those of the source. No rule for the calls is given here.

System: CCRIS mutagenicity, Ames/micronucleus/aberration tests
Assay: CCRIS mutagenicity studies
[1] = Test System: AMES SALMONELLA TYPHIMURIUM, Strain/Indicator: TA97, Metabolic Activation: NONE, Method: PREINCUBATION
[2] = Test System: AMES SALMONELLA TYPHIMURIUM, Strain/Indicator: TA98, Metabolic Activation: NONE, Method: PREINCUBATION
[3] = Test System: AMES SALMONELLA TYPHIMURIUM, Strain/Indicator: TA100, Metabolic Activation: NONE, Method: PREINCUBATION
[4] = Test System: AMES SALMONELLA TYPHIMURIUM, Strain/Indicator: TA1535, Metabolic Activation: NONE, Method: PREINCUBATION
[5] = Test System: AMES SALMONELLA TYPHIMURIUM, Strain/Indicator: TA98, Metabolic Activation: NONE, Method: STANDARD PLATE
[6] = Test System: AMES SALMONELLA TYPHIMURIUM, Strain/Indicator: TA98, Metabolic Activation: RAT, LIVER, S-9, AROCLOR 1254, Method: STANDARD PLATE
[7] = Test System: AMES SALMONELLA TYPHIMURIUM, Strain/Indicator: TA100, Metabolic Activation: RAT, LIVER, S-9, AROCLOR 1254, Method: STANDARD PLATE

CCN(CC)c1ccc(N)cc1
mutagenic call (End Point: IN VITRO CHROMOSOMAL ABERRATIONS, Test System: CHINESE HAMSTER LUNG CELLS (CHL), Metabolic Activation: RAT, LIVER, S-9, KC-400): inactive; negative
mutagenic call (End Point: IN VITRO CHROMOSOMAL ABERRATIONS, Test System: CHINESE HAMSTER OVARY CELLS (CHO), Metabolic Activation: NONE): active; positive (structural changes)
mutagenic call (End Point: IN VITRO CHROMOSOMAL ABERRATIONS, Test System: CHINESE HAMSTER OVARY CELLS (CHO), Metabolic Activation: RAT, LIVER, S-9, AROCLOR 1254): inactive; negative
mutagenic call (Test System: AMES SALMONELLA TYPHIMURIUM, Strain/Indicator: TA97, Metabolic Activation: HAMSTER, LIVER, S-9, AROCLOR 1254 (10%), Method: PREINCUBATION): active; positive
mutagenic call [1]: inactive; negative
mutagenic call (Test System: AMES SALMONELLA TYPHIMURIUM, Strain/Indicator: TA97, Metabolic Activation: RAT, LIVER, S-9, AROCLOR 1254 (10%), Method: PREINCUBATION): inactive; negative
mutagenic call (Test System: AMES SALMONELLA TYPHIMURIUM, Strain/Indicator: TA98, Metabolic Activation: HAMSTER, LIVER, S-9, AROCLOR 1254 (10%), Method: PREINCUBATION): active; positive
mutagenic call [2]: inactive; negative
mutagenic call (Test System: AMES SALMONELLA TYPHIMURIUM, Strain/Indicator: TA98, Metabolic Activation: RAT, LIVER, S-9, AROCLOR 1254 (10%), Method: PREINCUBATION): active; positive
mutagenic call (Test System: AMES SALMONELLA TYPHIMURIUM, Strain/Indicator: TA100, Metabolic Activation: HAMSTER, LIVER, S-9, AROCLOR 1254 (10%), Method: PREINCUBATION): active; positive
mutagenic call [3]: inactive; negative
mutagenic call (Test System: AMES SALMONELLA TYPHIMURIUM, Strain/Indicator: TA100, Metabolic Activation: RAT, LIVER, S-9, AROCLOR 1254 (30%), Method: PREINCUBATION): inactive; negative
mutagenic call (Test System: AMES SALMONELLA TYPHIMURIUM, Strain/Indicator: TA1535, Metabolic Activation: HAMSTER, LIVER, S-9, AROCLOR 1254 (10%), Method: PREINCUBATION): inactive; negative
mutagenic call [4]: inactive; negative
mutagenic call (Test System: AMES SALMONELLA TYPHIMURIUM, Strain/Indicator: TA1535, Metabolic Activation: RAT, LIVER, S-9, AROCLOR 1254 (10%), Method: PREINCUBATION): inactive; negative

COC(=O)c1oc(NOC(C)=O)c(-c2ccccc2)c1-c1ccccc1
mutagenic call [2]: inactive; negative
mutagenic call (Test System: AMES SALMONELLA TYPHIMURIUM, Strain/Indicator: TA98, Metabolic Activation: RAT, LIVER, S-9, AROCLOR, Method: PREINCUBATION): inactive; negative
mutagenic call [3]: inactive; negative
mutagenic call (Test System: AMES SALMONELLA TYPHIMURIUM, Strain/Indicator: TA100, Metabolic Activation: RAT, LIVER, S-9, AROCLOR, Method: PREINCUBATION): inactive; negative

O=C(O)CN(CC(=O)O)C1C[C@H]1N(CC(=O)O)CC(=O)O (stereo partly drawn)
mutagenic call (Test System: CHINESE HAMSTER V-79, Strain/Indicator: V-79/OUABAIN, Metabolic Activation: NONE, Method: STANDARD PLATE): active; positive
mutagenic call (Test System: UDS RODENT CELLS, Strain/Indicator: THY INCORP (NON-S-PHASE), Metabolic Activation: NONE, Method: AUTORADIOGRAPHY): active; positive

Nc1ccc(S(=O)(=O)O)cc1
mutagenic call (Test System: AMES SALMONELLA TYPHIMURIUM, Strain/Indicator: TA97, Metabolic Activation: HAMSTER, LIVER, S-9, AROCLOR 1254 (10 OR 30%), Method: PREINCUBATION): inactive; negative
mutagenic call [1]: inactive; negative
mutagenic call (Test System: AMES SALMONELLA TYPHIMURIUM, Strain/Indicator: TA97, Metabolic Activation: RAT, LIVER, S-9, AROCLOR 1254 (10 OR 30%), Method: PREINCUBATION): inactive; negative
mutagenic call (Test System: AMES SALMONELLA TYPHIMURIUM, Strain/Indicator: TA98, Metabolic Activation: HAMSTER, LIVER, S-9, AROCLOR 1254 (10 OR 30%), Method: PREINCUBATION): inactive; negative
mutagenic call [2]: inactive; negative
mutagenic call (Test System: AMES SALMONELLA TYPHIMURIUM, Strain/Indicator: TA98, Metabolic Activation: RAT, LIVER, S-9, AROCLOR 1254 (10 OR 30%), Method: PREINCUBATION): inactive; negative
mutagenic call (Test System: AMES SALMONELLA TYPHIMURIUM, Strain/Indicator: TA98, Metabolic Activation: RAT, LIVER, S-9, PHENOBARBITAL, Method: PREINCUBATION): inactive; negative
mutagenic call (Test System: AMES SALMONELLA TYPHIMURIUM, Strain/Indicator: TA100, Metabolic Activation: HAMSTER, LIVER, S-9, AROCLOR 1254 (10 OR 30%), Method: PREINCUBATION): inactive; negative
mutagenic call [3]: inactive; negative
mutagenic call (Test System: AMES SALMONELLA TYPHIMURIUM, Strain/Indicator: TA100, Metabolic Activation: RAT, LIVER, S-9, AROCLOR 1254 (10 OR 30%), Method: PREINCUBATION): inactive; negative
mutagenic call (Test System: AMES SALMONELLA TYPHIMURIUM, Strain/Indicator: TA100, Metabolic Activation: RAT, LIVER, S-9, PHENOBARBITAL, Method: PREINCUBATION): inactive; negative
mutagenic call (Test System: AMES SALMONELLA TYPHIMURIUM, Strain/Indicator: TA1535, Metabolic Activation: HAMSTER, LIVER, S-9, AROCLOR 1254 (10 OR 30%), Method: PREINCUBATION): inactive; negative
mutagenic call [4]: inactive; negative
mutagenic call (Test System: AMES SALMONELLA TYPHIMURIUM, Strain/Indicator: TA1535, Metabolic Activation: RAT, LIVER, S-9, AROCLOR 1254 (10 OR 30%), Method: PREINCUBATION): inactive; negative
mutagenic call (Test System: Ames Salmonella typhimurium, Strain/Indicator: TA102, Metabolic Activation: None, Method: Preincubation): inactive; negative
mutagenic call (Test System: Ames Salmonella typhimurium, Strain/Indicator: TA102, Metabolic Activation: Rat, Liver, S9, Aroclor 1254, Method: Preincubation): inactive; negative
mutagenic call (Test System: Ames Salmonella typhimurium, Strain/Indicator: TA104, Metabolic Activation: None, Method: Preincubation): inactive; negative
mutagenic call (Test System: Ames Salmonella typhimurium, Strain/Indicator: TA104, Metabolic Activation: Rat, Liver, S9, Aroclor 1254, Method: Preincubation): inactive; negative

CCOP(=O)(OCC)O/C(=C\Cl)c1ccc(Cl)cc1Cl
mutagenic call [5]: inactive; negative
mutagenic call [6]: inactive; negative
mutagenic call [7]: inactive; negative
mutagenic call (Test System: AMES SALMONELLA TYPHIMURIUM, Strain/Indicator: TA100, Metabolic Activation: S-9 MIX, Method: STANDARD PLATE): inactive; negative
mutagenic call (Test System: AMES SALMONELLA TYPHIMURIUM, Strain/Indicator: TA1535, Metabolic Activation: NONE, Method: STANDARD PLATE): inactive; negative
mutagenic call (Test System: AMES SALMONELLA TYPHIMURIUM, Strain/Indicator: TA1535, Metabolic Activation: RAT, LIVER, S-9, AROCLOR 1254, Method: STANDARD PLATE): inactive; negative
mutagenic call (Test System: AMES SALMONELLA TYPHIMURIUM, Strain/Indicator: TA1537, Metabolic Activation: NONE, Method: STANDARD PLATE): inactive; negative
mutagenic call (Test System: AMES SALMONELLA TYPHIMURIUM, Strain/Indicator: TA1537, Metabolic Activation: RAT, LIVER, S-9, AROCLOR 1254, Method: STANDARD PLATE): inactive; negative
mutagenic call (Test System: AMES SALMONELLA TYPHIMURIUM, Strain/Indicator: TA1538, Metabolic Activation: NONE, Method: STANDARD PLATE): inactive; negative
mutagenic call (Test System: AMES SALMONELLA TYPHIMURIUM, Strain/Indicator: TA1538, Metabolic Activation: RAT, LIVER, S-9, AROCLOR 1254, Method: STANDARD PLATE): inactive; negative

O=[N+]([O-])c1ccc2ccc3c4c(cc5ccc1c2c53)C=CCC4
mutagenic call (Test System: AMES SALMONELLA TYPHIMURIUM, Strain/Indicator: TA98(1,8-DNP6), Metabolic Activation: NONE, Method: STANDARD PLATE): active; positive
mutagenic call (Test System: AMES SALMONELLA TYPHIMURIUM, Strain/Indicator: TA98(1,8-DNP6), Metabolic Activation: RAT, LIVER, S-9, AROCLOR 1254, Method: STANDARD PLATE): active; positive
mutagenic call (Test System: AMES SALMONELLA TYPHIMURIUM, Strain/Indicator: TA98(NR), Metabolic Activation: NONE, Method: STANDARD PLATE): active; positive
mutagenic call (Test System: AMES SALMONELLA TYPHIMURIUM, Strain/Indicator: TA98(NR), Metabolic Activation: RAT, LIVER, S-9, AROCLOR 1254, Method: STANDARD PLATE): active; positive
mutagenic call [5]: active; positive
mutagenic call [6]: active; positive
mutagenic call (Test System: AMES SALMONELLA TYPHIMURIUM, Strain/Indicator: TA100, Metabolic Activation: NONE, Method: STANDARD PLATE): active; positive
mutagenic call [7]: active; positive

Fc1ccc2c3c(cccc13)-c1cc3ccccc3cc1-2
mutagenic call [7]: active; positive
